According to PubChem BioAssay AID1259411 (Chemical Carcinogenesis Research Information System (CCRIS), 2018):
Active and inactive are the calls of the source. The rule behind the calls is not given here.

Tested on: rodent carcinogenicity bioassays, tumor incidence
Assay: CCRIS carcinogenicity studies
Outline: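 NCI-built, expert-reviewed records of carcinogenicity and related test outcomes (mutagenicity, tumor promotion/inhibition) compiled from published and report sources, historical span 1985-2011, not updated.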

Question: `O=NN1CCOC(O)C1` (stereo not given) was tested. Which carcinogen call (Species: MOUSE, Strain/Sex: STRAIN-A/FEMALE, Route: ORAL, Dose: 0, 0.2 UMOL/ML IN DRINKING WATER FOR 10 WK (TOTAL DOSE: 0; 53 UMOL) FOLLOWED BY TAP WATER FOR 20 WK (STUDY DURATION: 30, Dose: 0, 0.2 UMOL/ML IN DRINKING WATER FOR 10 WK (TOTAL DOSE: 0; 53 UMOL) FOLLOWED BY TAP WATER FOR 20 WK (STUDY DURATION: 30, Tumor Site: Type of Lesion: LUNG: TUMORS) did it give?
Answer: Its carcinogen call is “active; positive”.

Question: And the carcinogen call (Species: RAT, Strain/Sex: F344/FEMALE, Route: GAVAGE, Dose: 0, 22 MG/WK FOR A TOTAL DOSE OF 8.5 MMOL (STUDY DYRATION: 110 WK), Tumor Site: Type of Lesion: LIVER: TUMOR, LUNG: TUMOR)?
Answer: The carcinogen call was “active; positive”.

Question: What about the carcinogen call (Species: RAT, Strain/Sex: F344/FEMALE, Route: ORAL, Dose: 0, 15, 30 MG/L IN DRINKING WATER 5 D/WK FOR 50 WK (TOTAL DOSE: 0; 0.6; 1.2 MMOL) (STUDY DURATION: 124 WK), Dose: 0, 15, 30 MG/L IN DRINKING WATER 5 D/WK FOR 50 WK (TOTAL DOSE: 0; 0.6; 1.2 MMOL) (STUDY DURATION: 124 WK)) of the same compound?
Answer: Its carcinogen call is “inactive; negative”.

Question: For `CN(CCC=O)N=O`, which carcinogen call (Species: RAT, Strain/Sex: F344/MALE, Route: SUBCUTANEOUS, Dose: 0, 6.57 MG (0.057 MMOL) IN 0.3 ML TRIOCTANOIN 3 D/WK FOR 15 WK (STUDY DURATION: 100 WK), Tumor Site: Type of Lesion: NASAL CAVITY: PAPILLOMA, LIVER: ADENOMA, LUNG: ADENOMA, Tumor Site: Type of Lesion: NASAL CAVITY: PAPILLOMA, LIVER: ADENOMA, LUNG: ADENOMA) is on record?
Answer: The carcinogen call was “active; positive”.

Question: How did the carcinogen call (Species: MOUSE, Route: DERMAL, Tumor Site: Type of Lesion: INTEGUMENTARY SYSTEM (SKIN)) turn out when `C1OC1C1CO1` (stereo not given) was run?
Answer: Its carcinogen call is “active; positive”.

Question: What about the carcinogen call (Species: MOUSE, Route: INTRAPERITONEAL, Tumor Site: Type of Lesion: LUNG) of the same compound?
Answer: The carcinogen call was “active; positive”.

Question: And the carcinogen call (Species: MOUSE, Route: SUBCUTANEOUS, Tumor Site: Type of Lesion: INJECTION SITE)?
Answer: Its carcinogen call is “active; positive”.

Question: And the carcinogen call (Species: MOUSE, Strain/Sex: B6C3F1/FEMALE, Route: INHALATION, Dose: 0, 2.5, 5.0 PPM 6 HR/D 5 D/WK FOR 6 WK (STUDY DURATION: 18 MONTHS), Dose: 0, 2.5, 5.0 PPM 6 HR/D 5 D/WK FOR 6 WK (STUDY DURATION: 18 MONTHS), Tumor Site: Type of Lesion: HARDERIAN GLAND: TUMOR)?
Answer: Its carcinogen call is “active; positive”.

Question: And the carcinogen call (Species: RAT, Route: SUBCUTANEOUS, Tumor Site: Type of Lesion: INJECTION SITE)?
Answer: The carcinogen call was “active; positive”.

Question: What about the carcinogen call (Species: RAT, Strain/Sex: SPRAGUE-DAWLEY/FEMALE, Route: INHALATION, Dose: 0, 2.5, 5.0 PPM 6 HR/D 5 D/WK FOR 6 WK (STUDY DURATION: 18 MONTHS), Dose: 0, 2.5, 5.0 PPM 6 HR/D 5 D/WK FOR 6 WK (STUDY DURATION: 18 MONTHS), Tumor Site: Type of Lesion: NASAL MUCOSA: TUMOR) of the same compound?
Answer: The carcinogen call was “active; positive”.
